# Results taken from paper PMC9171067, “A High Throughput Cell-Based Screen Assay for LINE-1 ORF1p Expression Inhibitors Using the In-Cell Western Technique” (Frontiers in Pharmacology, 2022).
# Read-outs that look alike come from different tables or passages of the source.
# Tests used:
# LINE-1 ORF1p expression [1] = test: In-Cell Western (ICW) assay of LINE-1 ORF1p expression in T-47D cells; format: cell-based, human; details: for EC50: Homo sapiens, T47D, T-47D cells 15000/well, serially diluted compound, 24 h incubation, ICW, read-out: EC50 for diminishing LINE-1 ORF1p expression level; for Inhibition Activity (%) of LINE-1 ORF1p expression: ICW screen, T47D cells, compounds 10 μM, 48 h
# Description: T-47D cells grown at 1×10^3 cells per well in 96-well plates (Corning Incorporated Costar, #3603). After 24 h incubation, chemical compounds (10 μM) were added to each well. After 48 h incubation, plates were fixed with 4% paraformaldehyde (PFA) for 20min at room temperature (RT). Then the cells were permeabilized with 0.2% Triton X-100 for 15min at RT, and blocked with Odyssey Blocking Buffer (TBS) (LI-COR, 9275000) for 1 h at RT. The cells were incubated at 4°C overnight with a rabbit monoclonal anti-ORF1p antibody (diluted 1:200, Abcam) and a mouse monoclonal anti-beta-actin antibody (diluted 1:250, Abcam) with gentle shakes. After five washes with PBS, the cells were stained with an IRDye® 800RD Goat anti-Rabbit antibody (diluted 1:400, LI-COR, #926–68071) and IRDye® 680CW Goat anti-Mouse antibody (1:600, LI-COR, #926–32210) at RT for 2 h. The microplates, were scanned with the Odyssey system (LI-COR), and the integrated fluorescence intensities representing the protein expression levels were acquired using Image Studio Ver 5.2 software ([Egorina et al., 2006]). Compared with DMSO control, compounds with an inhibition rate over 50% were defined as promising compounds.
# (§1) The 50% cytotoxic concentration (CC50) values of 5 drug leads were measured using normal […] cell line HUVEC and breast cancer cell line T-47D at 6 different inhibitor concentrations. HUVEC and T47-D cell lines in the logarithmic phase were reseeded into 96-well plates (Nest Inc.) at a density of 1×10^3 cells/well and the plates were incubated for up to 2 days. At the end of each experiment, cells were incubated with 10 µl of the CCK-8 reagent (Vazyme) at 37°C for 2 h. The optical density (OD) at 450 nm was measured by a microplate reader (PerkinElmer Inc.) according to the manufacturer’s instructions. The data are expressed as % of the control. The experiments were repeated at least three times. The 50% effective concentration (EC50) of 5 drugs were measured using breast cancer cell line T-47D and 6 different inhibitor concentrations.
# [2] = CCK-8 cell viability (CC50) in T-47D cells; format: cell-based; details: human
# Description: as §1
# LINE-1 5'-UTR promoter = test: L1-FL luciferase reporter driven by the LINE-1 5'-UTR promoter in 293 T cells; format: cell-based, human
# [3] = tested on: LINE-1 retrotransposition; test: LINE-1 retrotransposition dual-luciferase assay (pWA367 reporter) in HeLa cells; format: cell-based, human; details: 10 μM
# Description: This assay is utilized to measure the influence of the compounds on LINE-1 retrotransposition or the L1 5′UTR promoter activity. A 200:1 ratio of FL-L1 or pWA367 and pCMV-Rluc was transfected into HeLa cells, Rluc was served as a control to normalize the Firefly luciferase activity level. Six hours post-transfection, cells were reseeded in 96-well plates, and the plates were incubated for up to 1 day. Next, compounds #1:Hydroxyprogesterone (10μM, 20 μM), # 2: 2,2':5′,2″-Terthiophene (10μM, 20 μM) and # 3: Ethynyl estradiol (10μM, 20 μM) were added. 72–96 h after adding tested compounds to the cells, 25 μl passive lysis buffer was added in each well to lyse cells, and then, 20 μl lysate was detected by dual-luciferase reporter assay system (Promega, USA). Furthermore, the activity levels of Renilla and Firefly luciferase were quantified using Promega Luciferase Assay Kit (Promega) on a Berthold microplate reader.
# LINE-1 ORF1p expression [4] = test: Immunoblotting of LINE-1 ORF1p in T-47D cells; format: cell-based, human; details: 48 h
# Description: Cells were collected and lysed with NP-40 buffer (Beyotime). The protein lysis was boiled for 20 min at 100 C in SDS-PAGE loading buffer. Equal amounts of cell lysate were […]. Proteins were transferred onto a PVDF membrane, blocked with 5% skim milk, and probed with anti-ORF1p antibody (diluted 1:1000) and anti-β-actin antibody (diluted 1:5,000) at 4°C overnight. After four wash steps with PBS plus 0.1% Tween 20 (PBST), the membrane was incubated with 1:5,000 dilution of HRP-conjugated goat-anti-mouse, HRP-conjugated goat-anti-rabbit, IRDye® 800CW Goat anti-Rabbit 926–32,211 (1:10,000, LI-COR) and IRDye® 700CW Goat anti-Mouse 926–32,210 (1:10,000, LI-COR) secondary antibodies for 1 h at room temperature. After four wash steps with PBS plus 0.1% Tween 20 (PBST), signals were detected using Western Lightning chemiluminescence reagent or analyzed with the Odyssey infrared imaging system and the software program as specified in the Odyssey software manual.
# T47D cells = test: CCK8 cell proliferation assay, T47D; format: cell-based, human; details: IFNα17 500 Units/mL, 6 days
# Description: To analyze the anti-proliferation effects of the three compounds and IFN17α against carcinoma cells, NCI-H661, NCI-H446, T47-D, MRC-5 and WI-38 cell lines in the logarithmic phase were reseeded into 96-well plates (Nest Inc.) at a density of 1×10^4 cells/well and the plates were incubated for 24 h. […] Cells were incubated with 10 µl of the CCK-8 reagent (Vazyme) each day at 37°C for 2 h. The optical density (OD) at 450 nm was measured by a microplate reader (PerkinElmer Inc.) according to the manufacturer’s instructions. The experiments were repeated at least three times.
# NCl-H661 cells = test: CCK8 cell proliferation assay, NCl-H661; format: cell-based, human; details: IFNα17 200 or 500 Units/mL, 6 days
# Description: (§2) To analyze the anti-proliferation effects of the three compounds and IFN17α against carcinoma cells, NCI-H661, NCI-H446, T47-D, MRC-5 and WI-38 cell lines in the logarithmic phase were reseeded into 96-well plates (Nest Inc.) at a density of 1×10^4 cells/well and the plates were incubated for 24 h. Next, IFN17α (200U/mL) was incubated with NCI-H661, NCI-H446, T47-D and MRC-5 cells, compounds #1(Hydroxyprogesterone), #2 (2,2':5′,2″-Terthiophene) and #3 (Ethynyl estradiol) were added at the concentrations of 10μM and 20 μM respectively, for consecutive 6 days. Cells were incubated with 10 µl of the CCK-8 reagent (Vazyme) each day at 37°C for 2 h. The optical density (OD) at 450 nm was measured by a microplate reader (PerkinElmer Inc.) according to the manufacturer’s instructions. The experiments were repeated at least three times.
# LINE-1 RNA = test: RT-qPCR of LINE-1 RNA level in T-47D cells; format: cell-based, human; details: IFNα17 200 Units/mL, 48 h
# From the text: Total RNA was extracted from cells using TRIZOL Reagent (Invitrogen). RNA was reverse transcribed to cDNA using MLV Reverse Transcriptase (Invitrogen) with random primers. The cDNAs were quantified using SsoFast EvaGreen Supermix (Bio-Rad) with Bio Rad iCycler iQ5 Real-Time PCR systems. Primer sequences for cDNAs were as follows: (5′-AATGAGATCACATGGACACAGGAAG-3’/5′- TGTATACATGTGCCATGCTGGTGC-3′).
# NCl-H446 cells = test: CCK8 cell proliferation assay, NCl-H446; format: cell-based, human; details: IFNα17 200 or 500 Units/mL, 6 days
# Description: as §2
molecule,measurement,setting,value
"c1csc(-c2ccc(-c3cccs3)s2)c1 [#2, 2,2':5′,2″-Terthiophene]",EC50,LINE-1 ORF1p expression [1],32.3 µM
same,Inhibition Activity (%) of LINE-1 ORF1p expression,LINE-1 ORF1p expression [1],56%
same,CC50,[2],95.5 µM
same,effect on luciferase value (L1-FL),LINE-1 5'-UTR promoter; 10 μM,mild effects
"C#C[C@]1(O)CC[C@H]2[C@@H]3CCc4cc(O)ccc4[C@H]3CC[C@@]21C [#3, Ethynyl estradiol]",EC50,LINE-1 ORF1p expression [1],12.4 µM
same,Inhibition Activity (%) of LINE-1 ORF1p expression,LINE-1 ORF1p expression [1],60%
same,CC50,"[2]; T-47D breast cancer cells, T-47D cells 1000/well, CCK-8, read-out: CC50",91.4 µM
same,effect on LINE-1 retrotransposition (Fluc/Rluc),[3],best potent activity
same,suppression of luciferase value (L1-FL),LINE-1 5'-UTR promoter; 10 μM,over 60%
"Cc1cn([C@H]2C=C[C@@H](CO)O2)c(=O)[nH]c1=O [d4T, reference compound]",effect on LINE-1 retrotransposition (Fluc/Rluc),[3],inhibited LINE-1 retrotransposition
same,effect on LINE-1 ORF1p level by immunoblotting,LINE-1 ORF1p expression [4],little effect
IFNα17: interferon used as positive control in inhibiting LINE-1 ORF1p expression level in the ICW assay,effect on ICW fluorescence value (ORF1p),"LINE-1 ORF1p expression [1]; T-47D cells, increasing doses of IFNα17",decreased fluorescence value in a dose-dependent way
same,effect of IFNα17 on proliferation of T47D,T47D cells,inhibition became obvious
same,effect on LINE-1 ORF1p level by immunoblotting,LINE-1 ORF1p expression [4],obviously decrease ORF1p level in a dose-dependent manner
same,effect on luciferase value (L1-FL),"LINE-1 5'-UTR promoter; IFNα17 200 Unit/mL, 500 Unit/mL",mild effects
same,effect of IFNα17 on proliferation of NCl-H661,NCl-H661 cells,significantly decrease
same,suppression of LINE-1 RNA level,LINE-1 RNA,over 60%
same,effect of IFNα17 on proliferation of NCl-H446,NCl-H446 cells,significantly decrease
